Earlier results, collected in patent publication US20170262578A1, “SYSTEM, METHOD AND SOFTWARE FOR ANALYSIS OF INTRACELLULAR SIGNALING PATHWAY ACTIVATION USING TRANSCRIPTOMIC DATA” (PATHWAY PHARMACEUTICALS LTD, priority 2015, published 2017).
Like-named read-outs stand apart in the source and are kept apart here.

Tests used:
[1] = tested on: Metastatic Renal Cell Cancer; details: for Serious adverse events: 108 from 359 Axitinib / 110 from 355 Sorafenib participants
[2] = tested on: Metastatic Carcinoma of the Kidney Which Has Progressed on VEGF Receptor Tyrosine Kinase Inhibitor; details: with Best Supportive Care
[3] = tested on: Locally Advanced and/or Metastatic Renal Cell Carcinoma; details: 68 from 186 Pazopanib / 73 from 177 Sunitinib participants
[4] = tested on: Renal Cell Carcinoma; details: 28 from 51 participants
[5] = tested on: Locally Advanced and/or Metastatic Renal Cell Carcinoma; details: 230 from 554 Pazopanib / 224 from 548 Sunitinib participants
[6] = tested on: Metastatic Renal Cell Cancer
[7] = tested on: Cytokine-Refractory Metastatic Renal Cell Carcinoma; details: 46 from 106 participants
[8] = tested on: Cytokine-Refractory Metastatic Renal Cell Carcinoma
[9] = tested on: Advanced (First-Line) Renal Cell Cancer; details: 45 of 119 participants
[10] = tested on: Locally Advanced and/or Metastatic Renal Cell Carcinoma; details: 76 from 290 participants
[11] = tested on: Locally Recurrent or Metastatic Clear-Cell Renal Cell Carcinoma; details: 74 from 225 participants
[12] = tested on: unresectable or metastatic renal cell carcinoma
[13] = tested on: Advanced Renal Cell Carcinoma; details: for Median overall response duration: 11 / 19 / 20 participants; for Median progression free survival / Median time to treatment failure: 207 / 209 / 210 participants; for Median overall survival: 207 Interferon-α / 209 Temsirolimus / 210 combination participants; for Clinical benefit (complete, partial response or stable disease) / Complete or partial response: from 207 / 209 / 210 participants
[14] = tested on: Unresectable and/or Metastatic Renal Cell Carcinoma
[15] = tested on: Unresectable and/or Metastatic Renal Cell Carcinoma; remark: listed apart in the source
[16] = tested on: Metastatic Renal Cell Carcinoma (RCC)
[17] = tested on: Renal Cell Carcinoma
[18] = tested on: Unresectable and/or Metastatic Renal Cell Cancer
[19] = tested on: Metastatic or Unresectable Renal Cell Cancer (RCC)
[20] = first intervention period, 5 / 8 participants
[21] = first intervention period, from 97 / 92 participants

CNC(=O)c1ccccc1Sc1ccc2c(/C=C/c3ccccn3)n[nH]c2c1 [Axitinib]
Serious adverse events [1]: 30.08%

CO[C@H]1C[C@@H]2CC[C@@H](C)[C@@](O)(O2)C(=O)C(=O)N2CCCC[C@H]2C(=O)O[C@H]([C@H](C)C[C@@H]2CC[C@@H](OCCO)[C@H](OC)C2)CC(=O)[C@H](C)/C=C(\C)[C@@H](O)[C@@H](OC)C(=O)[C@H](C)C[C@H](C)/C=C/C=C/C=C/1C [RAD001, Everolimus]
Serious adverse events ([2]; 135 from 274 participants): 49.27%
Median overall survival ([2]; 277 participants): 13.57 months
Median progression free survival ([2]; 277 participants): 4.9 months
Complete or partial response ([2]; from 277 participants): 1.8%

CCN(CC)CCNC(=O)c1c(C)[nH]c(/C=C2\C(=O)Nc3ccc(F)cc32)c1C [Sunitinib]
Serious adverse events [3]: 41.24%
Serious adverse events [4]: 54.90%
Serious adverse events [5]: 40.88%
Serious adverse events ([6]; Sunitinib 37.5 mg group, 54 from 143 participants): 37.76%
Serious adverse events ([6]; Sunitinib 50 mg group, 50 from 146 participants): 34.25%
Serious adverse events [7]: 43.40%
Serious adverse events ([8]; AM dose group, out of 54 participants): 21 participants
Serious adverse events ([8]; PM dose group, from 53 participants): 20 participants
Serious adverse events [9]: 37.82%

Cc1ccc(Nc2nccc(N(C)c3ccc4c(C)n(C)nc4c3)n2)cc1S(N)(=O)=O [Pazopanib]
Serious adverse events [10]: 26.21%
Serious adverse events [3]: 36.56%
Serious adverse events [5]: 41.52%
Serious adverse events [11]: 32.89%

CN1CC[C@H](c2c(O)cc(O)c3c(=O)cc(-c4ccccc4Cl)oc23)[C@H](O)C1 [Flavopiridol]
stable disease ([12]; 14 among 34 participants): 41%
CR+PR ([12]; 34 participants): 12%
Median overall survival ([12]; 34 participants): 9 months
probability of not failing treatment by 6 months ([12]; 34 participants): 21%
complete response ([12]; among 34 participants): 1 participants
partial response ([12]; among 34 participants): 3 participants
Toxicity of treatment ([12]; in vivo): moderate

Interferon-α
Median overall response duration [13]: 7.4 months
Median progression free survival [13]: 3.2 months
Median time to treatment failure [13]: 1.9 months
Median overall survival [13]: 7.3 months
Clinical benefit (complete, partial response or stable disease) [13]: 16.4%
Complete or partial response [13]: 5.3%
Serious adverse events ([13]; in vivo): 49.5%

CNC(=O)c1cc(Oc2ccc(NC(=O)Nc3ccc(Cl)c(C(F)(F)F)c3)cc2)ccn1 [Sorafenib]
Serious adverse events [1]: 30.99%
Median progression free survival ([1]; 361 Axitinib / 362 Sorafenib participants): 4.7 months
Median duration of response according to the Independent Radiological Review [14, 20]: 7.5 months
Median time to response according to the Independent Radiological Review [14, 20]: 1.8 months
Serious adverse events ([14]; first intervention period, 47 from 97 / 36 from 90 participants): 48.45%
partial response (Independent Central Review) [14, 21]: 5 participants
stable disease (Independent Central Review) [14, 21]: 72 participants
Median progression-free survival according to the Investigator Assessment ([14]; second intervention period): 4.5 months
Serious adverse events ([14]; second intervention period, 14 from 49 / 30 from 61 participants): 28.57%
stable disease (Investigator Assessment) ([14]; second intervention period, from 49 / 61 participants): 25 participants
Median overall response duration ([15]; 5 participants): 7.4 months
Median time to objective response ([15]; 5 participants): 1.4 months
Serious adverse events ([15]; 12 from 39 participants): 30.77%
Median overall survival ([15]; 39 participants): 7.8 months
Median progression free survival ([15]; 39 participants): 5.5 months
Median time to progression ([15]; 39 participants): 5.5 months
partial response ([15]; from 39 participants): 5 participants
progressive disease ([15]; from 39 participants): 6 participants
stable disease ([15]; from 39 participants): 27 participants
Serious adverse events ([16]; 4 from 47 participants): 8.51%
Duration of overall response (tumor burden reduction) ([16]; 14 participants): 7.1 months
Median overall survival ([16]; 47 participants): 16 months
Median time to progression ([16]; 47 participants): 4.4 months
Reduction in tumor burden equal to or larger than 5% ([16]; at 8 weeks (2 cycles of treatment), % from 47 participants): 30%
Serious adverse events ([17]; 34 of 95 participants): 35.79%
Median duration of overall response ([17]; 94 participants): 419 days
Median progression free survival ([17]; 94 participants): 386 days
Median time to response ([17]; 94 participants): 84 days
partial response ([17]; among 94 participants): 25 participants
stable disease ([17]; among 94 participants): 64 participants
Number of participants who died ([17]; from start of treatment of the first subject until 45 months later, from 94 participants): 43 participants
Serious adverse events ([18]; 154 from 451 participants): 34.15%
Median progression free survival ([18]; 384 participants): 167 days
Median overall survival ([18]; 451 participants): 542 days
partial response ([18]; from 335 participants): 2.1%
stable disease ([18]; from 335 participants): 77.9%

CNC(=O)c1cc(Oc2ccc(NC(=O)Nc3ccc(Cl)c(C(F)(F)F)c3)c(F)c2)ccn1 [Regorafenib]
Median overall response duration ([19]; 19 participants): 428 days
Median duration of stable disease ([19]; 25 participants): 119 days
Serious adverse events ([19]; 30 from 49 participants): 61.22%
Median progression free survival ([19]; 49 participants): 335 days
partial response ([19]; among 48 participants): 39.6%
stable disease ([19]; among 48 participants): 41.7%

CO[C@H]1C[C@@H]2CC[C@@H](C)[C@@](O)(O2)C(=O)C(=O)N2CCCC[C@H]2C(=O)O[C@H]([C@H](C)C[C@@H]2CC[C@@H](OC(=O)C(C)(CO)CO)[C@H](OC)C2)CC(=O)[C@H](C)/C=C(\C)[C@@H](O)[C@@H](OC)C(=O)[C@H](C)C[C@H](C)/C=C/C=C/C=C/1C [Temsirolimus]
Median overall response duration [13]: 11.1 months
Serious adverse events ([13]; 99 from 200 / 82 from 208 / 122 from 208 participants): 39.42%
Median progression free survival [13]: 5.6 months
Median time to treatment failure [13]: 3.7 months
Median overall survival [13]: 10.9 months
Clinical benefit (complete, partial response or stable disease) [13]: 34%
Complete or partial response [13]: 9.1%
